Consider two molecules from PMC8213057, “Targeting ALK2: An Open Science Approach to Developing Therapeutics for the Treatment of Diffuse Intrinsic Pontine Glioma” (Journal of Medicinal Chemistry, 2020).

The target of assay [1] is T1, ARK5/NUAK1 (Homo sapiens, UniProt O60285).
T1 sequence (O60285 1-661): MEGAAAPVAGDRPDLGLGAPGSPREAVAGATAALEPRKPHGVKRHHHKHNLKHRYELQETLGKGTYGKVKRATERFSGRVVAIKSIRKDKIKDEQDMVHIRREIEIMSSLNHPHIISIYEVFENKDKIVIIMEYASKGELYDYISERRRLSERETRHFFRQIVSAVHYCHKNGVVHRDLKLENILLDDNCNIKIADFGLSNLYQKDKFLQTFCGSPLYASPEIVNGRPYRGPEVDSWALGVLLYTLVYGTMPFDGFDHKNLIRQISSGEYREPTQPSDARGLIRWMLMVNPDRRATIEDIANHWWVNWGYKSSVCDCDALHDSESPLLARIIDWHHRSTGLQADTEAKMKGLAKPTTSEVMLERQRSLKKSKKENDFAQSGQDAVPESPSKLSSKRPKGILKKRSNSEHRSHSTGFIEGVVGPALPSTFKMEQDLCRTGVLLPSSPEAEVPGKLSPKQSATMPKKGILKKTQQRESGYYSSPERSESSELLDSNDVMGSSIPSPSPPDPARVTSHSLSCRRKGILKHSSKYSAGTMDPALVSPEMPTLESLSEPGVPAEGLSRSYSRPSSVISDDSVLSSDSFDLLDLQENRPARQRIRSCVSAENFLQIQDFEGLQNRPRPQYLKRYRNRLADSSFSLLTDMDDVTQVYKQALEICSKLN
To be noted: 1 μM; Run 1, Run 2.

The target in assay [2] is CDK4/cyclin D3 (Homo sapiens, UniProt P11802). In words: biochemical. To be noted: read-out: % enzyme activity, 1 μM; Run 1, Run 2.
For assay [3], the target named is T2, EPHA3 (Homo sapiens, UniProt P29320).
T2 sequence (P29320 21-983): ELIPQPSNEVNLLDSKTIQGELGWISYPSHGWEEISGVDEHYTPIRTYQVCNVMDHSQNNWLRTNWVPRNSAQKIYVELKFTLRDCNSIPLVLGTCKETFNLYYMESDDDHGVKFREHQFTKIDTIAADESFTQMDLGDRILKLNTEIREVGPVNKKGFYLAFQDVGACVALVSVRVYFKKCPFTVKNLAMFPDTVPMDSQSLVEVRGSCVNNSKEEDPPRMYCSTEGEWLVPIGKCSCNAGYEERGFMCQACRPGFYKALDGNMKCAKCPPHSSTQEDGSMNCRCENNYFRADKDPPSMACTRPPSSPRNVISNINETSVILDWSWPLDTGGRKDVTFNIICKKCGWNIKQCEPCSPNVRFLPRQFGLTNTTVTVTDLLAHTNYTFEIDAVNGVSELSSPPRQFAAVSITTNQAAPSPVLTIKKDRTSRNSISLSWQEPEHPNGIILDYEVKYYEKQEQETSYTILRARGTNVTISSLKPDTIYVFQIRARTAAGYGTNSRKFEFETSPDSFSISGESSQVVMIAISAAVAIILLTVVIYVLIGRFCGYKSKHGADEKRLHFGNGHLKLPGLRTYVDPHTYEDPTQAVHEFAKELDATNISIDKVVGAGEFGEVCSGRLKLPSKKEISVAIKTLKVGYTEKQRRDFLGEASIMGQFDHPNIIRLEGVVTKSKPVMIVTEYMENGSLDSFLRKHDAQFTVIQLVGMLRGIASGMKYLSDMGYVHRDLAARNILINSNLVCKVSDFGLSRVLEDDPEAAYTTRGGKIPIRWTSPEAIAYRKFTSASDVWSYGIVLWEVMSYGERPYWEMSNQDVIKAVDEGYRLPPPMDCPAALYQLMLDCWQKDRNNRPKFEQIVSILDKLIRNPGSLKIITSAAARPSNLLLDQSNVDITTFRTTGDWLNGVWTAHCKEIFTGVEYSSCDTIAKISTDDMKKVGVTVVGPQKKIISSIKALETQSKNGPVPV
As to the kind of experiment: biochemical. To be noted: read-out: % enzyme activity, 1 μM; Run 1, Run 2.

Assay [4] addresses JNK2 (Homo sapiens, UniProt P45984). As to the kind of experiment: biochemical. To be noted: read-out: % enzyme activity, 1 μM; Run 1, Run 2.
The target in assay [5] is MEKK1 (Homo sapiens, UniProt Q13233). In words: biochemical. The settings on record: read-out: % enzyme activity, 1 μM; Run 1, Run 2.
Assay [6] concerns the target T3, MST2/STK3 (Homo sapiens, UniProt Q13188).
T3 sequence (Q13188 1-491): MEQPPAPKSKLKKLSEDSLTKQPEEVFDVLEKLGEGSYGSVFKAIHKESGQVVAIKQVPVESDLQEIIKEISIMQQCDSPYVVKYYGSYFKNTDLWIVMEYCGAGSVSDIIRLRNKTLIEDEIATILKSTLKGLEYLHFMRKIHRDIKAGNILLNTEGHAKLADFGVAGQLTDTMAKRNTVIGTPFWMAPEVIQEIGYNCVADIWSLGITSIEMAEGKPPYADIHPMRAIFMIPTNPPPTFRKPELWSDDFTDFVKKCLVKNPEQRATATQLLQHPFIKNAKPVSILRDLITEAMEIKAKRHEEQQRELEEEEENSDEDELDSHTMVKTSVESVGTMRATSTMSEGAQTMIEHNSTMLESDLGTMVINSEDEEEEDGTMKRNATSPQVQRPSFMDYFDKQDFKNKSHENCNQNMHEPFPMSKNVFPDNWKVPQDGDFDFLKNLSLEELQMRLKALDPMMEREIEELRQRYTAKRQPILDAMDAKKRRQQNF
As to the kind of experiment: biochemical. To be noted: read-out: % enzyme activity, 1 μM; Run 1, Run 2.

In assay [7] the target is SIK3 (Homo sapiens, UniProt Q9Y2K2). As to the kind of experiment: biochemical. The settings on record: read-out: % enzyme activity, 1 μM; Run 1, Run 2.

Each structure is given as a SMILES string.

MEKK1, sequence (Q13233 whole entry): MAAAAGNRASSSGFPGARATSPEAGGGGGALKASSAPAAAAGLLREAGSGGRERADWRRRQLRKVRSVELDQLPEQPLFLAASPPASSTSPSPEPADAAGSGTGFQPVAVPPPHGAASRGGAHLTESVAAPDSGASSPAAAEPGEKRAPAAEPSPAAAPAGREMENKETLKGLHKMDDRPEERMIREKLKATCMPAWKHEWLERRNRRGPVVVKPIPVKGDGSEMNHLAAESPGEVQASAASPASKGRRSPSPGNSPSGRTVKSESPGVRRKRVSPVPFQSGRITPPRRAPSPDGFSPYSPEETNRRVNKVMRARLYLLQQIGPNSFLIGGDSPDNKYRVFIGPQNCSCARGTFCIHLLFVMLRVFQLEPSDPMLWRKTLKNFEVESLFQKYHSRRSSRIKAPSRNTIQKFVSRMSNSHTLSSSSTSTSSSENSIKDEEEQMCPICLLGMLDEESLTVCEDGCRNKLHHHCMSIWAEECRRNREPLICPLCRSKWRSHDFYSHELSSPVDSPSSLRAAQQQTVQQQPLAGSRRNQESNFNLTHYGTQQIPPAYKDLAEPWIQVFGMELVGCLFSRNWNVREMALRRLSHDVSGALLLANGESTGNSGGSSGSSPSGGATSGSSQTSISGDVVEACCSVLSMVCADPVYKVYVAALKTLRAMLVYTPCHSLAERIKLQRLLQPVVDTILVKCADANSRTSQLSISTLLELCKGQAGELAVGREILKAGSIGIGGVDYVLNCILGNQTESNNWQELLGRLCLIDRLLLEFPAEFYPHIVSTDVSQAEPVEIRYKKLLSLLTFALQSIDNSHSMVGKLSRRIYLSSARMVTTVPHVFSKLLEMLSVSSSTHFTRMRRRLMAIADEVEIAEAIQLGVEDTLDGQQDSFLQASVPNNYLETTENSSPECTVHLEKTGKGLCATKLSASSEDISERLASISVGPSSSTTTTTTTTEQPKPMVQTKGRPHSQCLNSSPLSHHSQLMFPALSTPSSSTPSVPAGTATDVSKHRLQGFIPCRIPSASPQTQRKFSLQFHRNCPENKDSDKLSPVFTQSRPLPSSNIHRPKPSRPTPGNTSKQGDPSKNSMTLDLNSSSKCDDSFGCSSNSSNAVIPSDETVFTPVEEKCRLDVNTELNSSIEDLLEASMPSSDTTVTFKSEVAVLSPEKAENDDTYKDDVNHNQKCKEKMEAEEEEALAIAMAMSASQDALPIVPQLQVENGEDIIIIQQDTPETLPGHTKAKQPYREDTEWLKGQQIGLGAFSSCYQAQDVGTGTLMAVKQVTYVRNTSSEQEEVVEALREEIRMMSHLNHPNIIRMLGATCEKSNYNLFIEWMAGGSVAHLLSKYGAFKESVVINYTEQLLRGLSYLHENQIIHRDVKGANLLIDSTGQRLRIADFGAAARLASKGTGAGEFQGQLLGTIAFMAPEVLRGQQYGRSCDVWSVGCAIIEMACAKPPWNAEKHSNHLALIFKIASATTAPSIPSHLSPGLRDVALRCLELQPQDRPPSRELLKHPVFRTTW
SIK3, sequence (Q9Y2K2 whole entry): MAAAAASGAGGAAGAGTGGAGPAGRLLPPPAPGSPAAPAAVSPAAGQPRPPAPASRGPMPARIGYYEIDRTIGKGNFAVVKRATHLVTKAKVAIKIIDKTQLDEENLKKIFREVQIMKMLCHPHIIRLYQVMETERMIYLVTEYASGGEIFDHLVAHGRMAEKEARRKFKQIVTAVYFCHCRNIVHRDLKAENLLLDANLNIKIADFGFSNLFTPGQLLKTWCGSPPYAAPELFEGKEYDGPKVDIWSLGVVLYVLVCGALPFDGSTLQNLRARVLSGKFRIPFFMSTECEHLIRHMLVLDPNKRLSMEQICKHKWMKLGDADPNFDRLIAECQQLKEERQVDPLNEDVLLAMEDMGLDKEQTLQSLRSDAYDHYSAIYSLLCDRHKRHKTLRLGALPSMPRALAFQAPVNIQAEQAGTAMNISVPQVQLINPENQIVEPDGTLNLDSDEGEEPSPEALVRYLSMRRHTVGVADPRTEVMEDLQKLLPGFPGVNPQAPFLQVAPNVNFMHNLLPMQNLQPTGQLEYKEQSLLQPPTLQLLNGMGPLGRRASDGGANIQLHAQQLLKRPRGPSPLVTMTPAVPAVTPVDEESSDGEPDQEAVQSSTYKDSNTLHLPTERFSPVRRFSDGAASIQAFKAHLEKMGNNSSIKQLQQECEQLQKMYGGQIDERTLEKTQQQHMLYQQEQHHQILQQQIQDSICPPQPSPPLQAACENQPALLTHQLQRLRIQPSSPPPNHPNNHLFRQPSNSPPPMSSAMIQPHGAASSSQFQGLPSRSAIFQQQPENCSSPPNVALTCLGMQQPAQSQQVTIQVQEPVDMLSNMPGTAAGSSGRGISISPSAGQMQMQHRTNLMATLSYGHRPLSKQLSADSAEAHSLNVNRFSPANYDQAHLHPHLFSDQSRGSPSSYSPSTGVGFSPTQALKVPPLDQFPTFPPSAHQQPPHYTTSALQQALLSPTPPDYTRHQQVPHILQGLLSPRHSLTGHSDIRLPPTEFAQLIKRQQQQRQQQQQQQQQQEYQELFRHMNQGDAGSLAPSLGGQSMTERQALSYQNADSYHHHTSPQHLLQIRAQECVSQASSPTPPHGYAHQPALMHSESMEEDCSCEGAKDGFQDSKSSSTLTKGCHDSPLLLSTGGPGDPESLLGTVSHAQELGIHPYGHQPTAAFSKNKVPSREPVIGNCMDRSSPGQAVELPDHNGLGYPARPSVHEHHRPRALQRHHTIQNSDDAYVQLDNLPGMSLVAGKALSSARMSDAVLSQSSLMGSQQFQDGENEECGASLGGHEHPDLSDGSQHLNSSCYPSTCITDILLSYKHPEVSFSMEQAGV
JNK2, sequence (P45984 whole entry): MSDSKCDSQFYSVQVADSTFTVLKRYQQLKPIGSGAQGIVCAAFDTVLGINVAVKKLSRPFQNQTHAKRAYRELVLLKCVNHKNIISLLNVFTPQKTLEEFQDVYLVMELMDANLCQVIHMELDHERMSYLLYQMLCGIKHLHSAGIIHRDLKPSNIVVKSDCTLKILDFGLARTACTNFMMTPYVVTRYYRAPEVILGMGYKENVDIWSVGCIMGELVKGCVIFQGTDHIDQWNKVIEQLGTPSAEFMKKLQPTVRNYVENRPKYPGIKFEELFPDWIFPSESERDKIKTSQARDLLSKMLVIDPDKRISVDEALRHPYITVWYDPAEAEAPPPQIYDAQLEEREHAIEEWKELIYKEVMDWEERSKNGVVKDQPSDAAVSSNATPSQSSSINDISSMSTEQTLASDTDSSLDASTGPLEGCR
CDK4/cyclin D3, sequence (P11802 whole entry): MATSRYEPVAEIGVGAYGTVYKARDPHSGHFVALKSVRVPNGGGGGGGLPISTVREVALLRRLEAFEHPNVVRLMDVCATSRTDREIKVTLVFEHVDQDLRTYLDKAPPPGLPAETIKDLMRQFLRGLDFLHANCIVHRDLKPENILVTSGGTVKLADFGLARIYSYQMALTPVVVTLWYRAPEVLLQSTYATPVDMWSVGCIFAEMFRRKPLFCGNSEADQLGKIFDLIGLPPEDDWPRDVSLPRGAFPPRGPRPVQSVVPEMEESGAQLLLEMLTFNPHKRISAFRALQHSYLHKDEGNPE
CDK4/cyclin D3, sequence (P30281 whole entry partner): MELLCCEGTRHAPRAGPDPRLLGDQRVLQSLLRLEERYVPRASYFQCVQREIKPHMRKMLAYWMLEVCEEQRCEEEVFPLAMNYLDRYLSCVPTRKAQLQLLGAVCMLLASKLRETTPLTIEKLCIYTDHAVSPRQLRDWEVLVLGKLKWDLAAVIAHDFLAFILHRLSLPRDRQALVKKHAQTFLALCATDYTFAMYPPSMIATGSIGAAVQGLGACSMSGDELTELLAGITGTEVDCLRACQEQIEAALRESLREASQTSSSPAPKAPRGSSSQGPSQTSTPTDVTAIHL

On to `COc1cc(-c2cncc(-c3ccc(N4CCN(C)CC4)cc3)c2C)cc(F)c1C(N)=O` [Compound 26a, 2-Fluoro-6-methoxy-4-(4-methyl-5-(4-(4-methylpiperazin-1-yl)phenyl)pyridin-3-yl)benzamide], for which, in assay [1], the “% enzyme activity” value is reported as 90.26%. Also, the remaining activity at 1 µM in assay [2] came to 101%; in assay [3], 95.7%; in assay [4], 93.4%; in assay [5], 94.3%; in assay [6], 95.6%; in assay [7], 59.5%.
In the case of `COc1cc(-c2cncc(-c3ccc(N4C[C@@H](C)N(C)[C@@H](C)C4)cc3)c2C)cc(F)c1C(N)=O` [Compound 26c, 2-Fluoro-6-methoxy-4-(4-methyl-5-(4-((3R,5S)-3,4,5-trimethylpiperazin-1-yl)phenyl)pyridin-3-yl)benzamide], the “% enzyme activity” value in assay [1] amounted to 93.75%. Besides, the remaining activity at 1 µM in assay [2] came to 96%; in assay [3], 101%; in assay [4], 94.7%; in assay [5], 97.7%; in assay [6] it was 102%; in assay [7] it was 89%.
